Data as given in patent publication US9610371B2, “Anticancer therapy” (STC.UNM, priority 2005, dated 2017).
Entries after “also recorded” stand apart in the source; their conditions may differ. Like-named read-outs stand apart in the source and are kept apart here. Positions of bridges follow the written chain, without caps; N, C: chain ends. Non-standard residues stand in square brackets, D forms with d. Residues, ends and D or L forms follow the SMILES beside them.

Legend:
Capan-2 cells [1] = experiment: Cell Death Detection ELISA PLUS apoptosis, gemcitabine pre-treated and non-treated Capan-2; assay type: cell-based, human; settings: 72 hours
Protocol: […] Capan-2 cells and non-treated cells were evaluated using CellTiter-Glo® Luminescent Cell Viability Assay (Promega, Madison, Wis.) and Cell Death Detection ELISA^PLUS10× (Roche Applied Sciences, IN) for apoptosis. Cell viability was evaluated at 24 and 48 hours of incubations.

Capan-2 cells [2] = experiment: CellTiter-Glo Luminescent Cell Viability Assay, gemcitabine pre-treated and non-treated Capan-2; assay type: cell-based, human
Protocol: Effects of 37 kBq and 370 kBq of ^177Lu labeled DOTATOC and DOTA on gemcitabine pre-treated Capan-2 cells and non-treated cells were evaluated using CellTiter-Glo® Luminescent Cell Viability Assay (Promega, Madison, Wis.) and Cell Death Detection ELISA^PLUS10× (Roche Applied Sciences, IN) for apoptosis. Cell viability was evaluated at 24 and 48 hours of incubations.

[3] = 25 day toxicology in tumor bearing male Lewis rats; assay type: in vivo, Lewis rat; settings: 25 days; 12.6 MBq ^213Bi-DOTATOC group and DOTATOC control group
Protocol: Toxicology was assessed at 25 days in 4 groups of tumor bearing male Lewis rats (average volume […]). Rats in the first group, Cohort 1, were injected on day 1 only. Rats in second cohort were injected on days 1 and 2, while rats in the third cohort were injected on days 1, 2, and 3. Rats were injected with 2.56 μg, 0.5 μg, 0.5 μg DOTATOC, on day 1, day 2 and day 3, respectively, with a nominal activity of 3.7 MBq. Each dose was divided into 2 injections at 1 hour intervals. The rats received the following cumulative average activities per group: Cohort 1 (N=3) received 4.3±0.7 MBq, Cohort 2 (N=3) received 9.0±0.4 MBq, and Cohort 3 (N=4) received 12.6±0.3 MBq of ^213Bi-DOTATOC. Cohort 4 (N=4) was added as control group and injected twice daily with unlabelled DOTATOC on three consecutive days.
After 24 days, the animals were put into a metabolic cage to collect urine samples for creatinine clearance analysis. Creatine clearance was determined as previously described (20). After 24 hour urine collection, the animals were euthanized with halothane. For blood collection, a cardiac puncture was performed. Blood analysis consisted of hemoglobin (Hgb), hematocrit (Hct), red blood cells (RBC's), and white blood cells (WBC's) with differential, and platelets (Pt's). Additionally T4 and FSH values were assessed using the serum.
Additional groups were then designed to study the effects of the treatment on a somatostatin receptor positive tumor. The first group was designed to study the effects of treatment on large volume tumors (average volume 1720±608 mm^3). This group, Cohort 5 (N=5), received three fractionated doses of ^213Bi-DOTATOC (specific activity 7.4 MBq ^213Bi/1 μG DOTATOC) with a total average cumulative dose of 13.0±0.5 MBq of ^213Bi-DOTATOC. The last cohort, the sixth cohort (N=4), was injected with two fractionated doses, ^213Bi-DOTATOC (specific activity 7.4 MBq ^213Bi/1 μG DOTATOC) with a total average cumulative dose of 22.2±0.7 MBq of ^213Bi-DOTATOC. As described earlier, each dose was divided into 2 injections separated by a 1 hour interval. Tumor response to the treatment was assessed in all cohorts by daily tumor measurements.
Organs were harvested and immediately placed in 10% formalin for a minimum of 48 hours. Following fixation in formalin, bone samples were placed in decalcifying solution for 36 hours. Trimmed organs were sent to the TriCore Laboratories (Albuquerque, N. Mex.) where they were embedded in paraffin, sectioned, and stained with Hematoxylin and Eosin (H and E). Histopathologic evaluation was performed by a board certified veterinary pathologist (DFK) who examined the following organs of each animal: heart, lung, kidneys, testicles, spleen, pancreas, pituitary bone marrow, urinary bladder, adrenals, and two different sections of the liver.
Sections of both the right and left kidneys were examined to determine nephrotoxicity in all cohorts. Bone marrow was examined to evaluate hypoplasia and other lesions in Cohorts 3 and 4. Interstitial nephritis and bone marrow were scored as follows: 0 no lesions, 1 minimal lesions, 2 mild lesions, 3 moderate lesions, and 4 severe lesions.
For the pathology scoring, to evaluate nephrotoxicity on the 6 treatment groups, a frequency analysis was performed in StatXact-5 using the Jonckheere-Terpstra Test. For all other data, graphs and calculations were performed in SigmaStat®-3 and SigmaPlot®-9 as well as Graph Pad Prism®-4 using the t-test. For all statistical tests results were considered significant when p<0.05. Animal biodistribution and tumor volume data are expressed as the average, plus or minus the SEM.

Capan-2 = experiment: Apoptosis in Capan-2 cells, with or without gemcitabine pre-treatment; assay type: cell-based, human; settings: Capan-2, 1 μg/mL, FIG. 7
From the text: Alpha emitters such as ^213Bi are known to cause G2M arrest and induce apoptosis in cancer cell lines. Experiments were thus performed to evaluate radiation-induced apoptosis and the radiobiological and radiotherapeutical relevance of this mode of cell death in selection of a radionuclide for therapy.
Activation or down regulation of pro- and anti-apoptotic genes influence cancer cell viability, cancer cell sensitivity to chemotherapy and radiotherapy, and tumor development and progression. A variety of chemotherapeutic agents induce cell death via apoptosis. Gemcitabine is known to induce apoptosis primarily due to Bax overexpression, whereas Bcl-xl is known to reduce gemcitabine-induced apoptosis. In contrast, Capan-2 is […] to Fas-mediated apoptosis. […] The data is expressed as ±S.E.M. of mean apoptosis. […] But when combined with radiolabeled DOTATOC, a synergetic effect on induction of apoptosis is observed.

[4] = tested on: somatostatin receptor binding sites of Capan-2 cells; experiment: Radioligand assay of ^177Lu-DOTATOC binding after gemcitabine pre-treatment; assay type: cell-based, human; settings: 4 days 1 μg/mL pre-treatment and 4 days of replenishment
Protocol: A radioligand assay was performed to evaluate receptor binding by the recognition ligand after pre-treatment of 4 days with 1 μg/mL gemcitabine and 4 days of replenishment.

human sst4 = human sst4 (Homo sapiens, UniProt P31391); settings: cited from earlier work
Sequence of human sst4 (P31391 whole entry): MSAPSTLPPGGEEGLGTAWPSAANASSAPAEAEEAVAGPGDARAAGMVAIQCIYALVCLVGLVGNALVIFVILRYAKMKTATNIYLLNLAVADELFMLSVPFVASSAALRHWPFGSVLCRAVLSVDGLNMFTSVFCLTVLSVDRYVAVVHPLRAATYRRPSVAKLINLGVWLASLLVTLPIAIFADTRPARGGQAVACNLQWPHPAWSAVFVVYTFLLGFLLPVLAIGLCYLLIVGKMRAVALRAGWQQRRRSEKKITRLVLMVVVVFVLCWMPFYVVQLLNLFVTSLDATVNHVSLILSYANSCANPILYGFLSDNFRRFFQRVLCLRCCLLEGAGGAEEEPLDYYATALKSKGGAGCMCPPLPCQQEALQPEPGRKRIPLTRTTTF

human sst2 = human sst2 (Homo sapiens, UniProt P30874); settings: cited from earlier work
Sequence of human sst2 (P30874 whole entry): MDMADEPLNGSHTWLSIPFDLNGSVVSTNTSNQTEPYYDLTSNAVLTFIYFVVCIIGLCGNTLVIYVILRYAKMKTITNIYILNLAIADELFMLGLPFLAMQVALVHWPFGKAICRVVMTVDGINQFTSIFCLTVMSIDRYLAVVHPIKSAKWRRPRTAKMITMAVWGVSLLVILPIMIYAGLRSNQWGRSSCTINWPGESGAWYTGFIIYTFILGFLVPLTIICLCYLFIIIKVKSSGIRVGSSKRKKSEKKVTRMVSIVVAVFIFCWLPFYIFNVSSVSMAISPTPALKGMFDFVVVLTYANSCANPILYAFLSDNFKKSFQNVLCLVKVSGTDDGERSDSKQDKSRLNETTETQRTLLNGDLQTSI

human sst3 = human sst3 (Homo sapiens, UniProt P32745); settings: cited from earlier work
Sequence of human sst3 (P32745 whole entry): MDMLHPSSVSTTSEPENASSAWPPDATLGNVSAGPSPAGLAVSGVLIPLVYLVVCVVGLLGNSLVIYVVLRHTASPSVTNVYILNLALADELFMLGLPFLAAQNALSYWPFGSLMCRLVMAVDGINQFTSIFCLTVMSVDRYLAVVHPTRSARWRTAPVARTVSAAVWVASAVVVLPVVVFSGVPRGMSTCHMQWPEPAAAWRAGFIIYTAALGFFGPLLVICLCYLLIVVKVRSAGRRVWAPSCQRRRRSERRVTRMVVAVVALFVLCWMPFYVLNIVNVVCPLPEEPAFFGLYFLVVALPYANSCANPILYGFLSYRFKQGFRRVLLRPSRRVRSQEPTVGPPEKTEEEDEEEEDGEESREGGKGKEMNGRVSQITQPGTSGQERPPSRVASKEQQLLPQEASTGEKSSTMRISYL

human sst1 = human sst1 (Homo sapiens, UniProt P30872); settings: cited from earlier work
Sequence of human sst1 (P30872 whole entry): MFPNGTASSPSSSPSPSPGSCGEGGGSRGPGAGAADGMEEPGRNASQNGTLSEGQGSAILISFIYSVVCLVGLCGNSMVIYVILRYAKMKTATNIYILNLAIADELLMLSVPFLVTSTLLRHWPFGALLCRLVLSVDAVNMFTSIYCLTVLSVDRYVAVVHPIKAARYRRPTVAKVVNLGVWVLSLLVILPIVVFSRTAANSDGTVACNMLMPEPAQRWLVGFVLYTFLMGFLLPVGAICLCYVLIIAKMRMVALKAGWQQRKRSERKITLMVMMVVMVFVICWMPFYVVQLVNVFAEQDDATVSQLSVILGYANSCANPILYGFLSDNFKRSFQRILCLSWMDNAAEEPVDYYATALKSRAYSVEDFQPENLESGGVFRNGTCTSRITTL

[5] = tested on: human SSTR subtypes (SSTR1-SSTR5); settings: cited from earlier work

Row | Compound | affinity for sst4 (human sst4) | affinity for sst2 (human sst2) | affinity for sst3 (human sst3) | affinity for sst1 (human sst1) | other results
1 | C[C@@H](O)[C@@H]1NC(=O)[C@H](CCCCN)NC(=O)[C@@H](Cc2c[nH]c3ccccc23)NC(=O)[C@H](Cc2ccc(O)cc2)NC(=O)[C@@H](NC(=O)[C@@H](Cc2ccccc2)NC(=O)CN2CCN(CC(=O)O)CCN(CC(=O)O)CCN(CC(=O)O)CC2)CSSC[C@@H](C(=O)N[C@H](CO)[C@@H](C)O)NC1=O [DOTATOC, [DOTA^0, Tyr^3] octreotide] | – | – | – | – | effects on the induction of apoptosis (Capan-2 cells [1]; without radiolabel): minimal effects; effects on cell viability (Capan-2 cells [2]; 24 hours, 70 pM and 7 fM, gemcitabine pre-treated and non-treated Capan-2): no significant effects; bone marrow analysis (hypoplasia, hyperplasia, lesions) [3]: no lesions
2 | O=C([O-])CN1CCN(CC(=O)[O-])CCN(CC(=O)[O-])CCN(CC(=O)[O-])CC1.[177Lu+3].[H+] [^177Lu-DOTA] | – | – | – | – | effect on apoptosis, gemcitabine pre-treated vs non-treated Capan-2 (Capan-2 cells [1]): Enhancements of radiation induced apoptosis; effects of radiosensitivity induced by gemcitabine pre-treatment on cell viability (Capan-2 cells [2]; 24 hours, higher doses (370 kBq)): can be observed; effects of radiosensitivity induced by gemcitabine pre-treatment on cell viability (Capan-2 cells [2]; 48 hours, 370 kBq as well as 37 kBq): observed
3 | Nc1ccn([C@@H]2O[C@H](CO)[C@@H](O)C2(F)F)c(=O)n1 [gemcitabine, 2′,2′-difluoro-2′-deoxycytidine] | – | – | – | – | induction of apoptosis by itself (Capan-2): does not induce any significant amount of apoptosis; more binding sites than the non-treated Capan-2 cells [4]: ~70%
4 | CC(C)[C@@H]1NC(=O)[C@H](CCCCN)NC(=O)[C@@H](Cc2c[nH]c3ccccc23)NC(=O)[C@H](Cc2ccc(O)cc2)NC(=O)[C@@H](NC(=O)[C@H](N)Cc2ccc3ccccc3c2)CSSC[C@@H](C(=O)N[C@H](C(N)=O)[C@@H](C)O)NC1=O [lanreotide, D-βNal-Cys-Tyr-D-Trp-Lys-Val-Cys-Thr-NH2] | very low affinity | high affinity | moderate affinity; also recorded: lower affinity | very low affinity | affinity for sst4 (human sst4; listed as LAN): moderate affinity
5 | C[C@@H](O)[C@@H]1NC(=O)[C@H](CCCCN)NC(=O)[C@@H](Cc2c[nH]c3ccccc23)NC(=O)[C@H](Cc2ccccc2)NC(=O)[C@@H](NC(=O)[C@H](N)Cc2ccccc2)CSSC[C@@H](C(=O)N[C@H](CO)[C@@H](C)O)NC1=O [octreotide, D-Phe-Cys-Phe-D-Trp-Lys-Thr-Cys-Thr-OH] | very low affinity | high affinity | moderate affinity; also recorded: lower affinity | very low affinity | affinity for sst4 (human sst4; listed as OCT): little or no affinity
6 | CC(C)[C@@H]1NC(=O)[C@H](CCCCN)NC(=O)[C@@H](Cc2c[nH]c3ccccc23)NC(=O)[C@H](Cc2ccc(O)cc2)NC(=O)[C@@H](NC(=O)[C@H](N)Cc2ccccc2)CSSC[C@@H](C(=O)N[C@@H](Cc2c[nH]c3ccccc23)C(N)=O)NC1=O [vapreotide, D-Phe-Cys-Tyr-D-Trp-Lys-Val-Cys-Trp-NH2] (H-[dF]CY[dW]KVCW-NH2; disulfide 2-7) | moderate affinity | high affinity | moderate affinity | very low affinity | –
7 | SST-24: somatostatin form bound by all 5 human SSTR subtypes; probably a misprint of somatostatin-14 | – | – | – | – | binding to all 5 human SSTR subtypes [5]: high affinity
8 | SST-28: somatostatin variant that is a 28 amino acid peptide | – | – | – | – | binding to all 5 human SSTR subtypes [5]: high affinity
